From patent publication US12319652B2, “Salts and solid forms of (R)-1-(5-methoxy-1H-indol-1-yl)-N,N-dimethylpropan-2-amine” (priority 2021, dated 2025)

Legend:
[1] = Heat-up/cool down (HUCD) crystallization of compound 1 Fumarate in different solvents
Text: Crystallisation from different solvents can be a useful method to investigate alternative polymorphic forms. This crystallisation screen of compound 1·Fumarate could also be used to identify potential conditions for future scale-up crystallisations to control the form outcome. Amorphous compound 1 fumarate (batch 1) was crystallised from several solvents (refer to Table 64). Only entries N1 AND N2 remained in solution when cooled down. The XRPD diffractograms of the rest, which delivered solids, matched monofumarate Form A when oven dried (FIG. 103).
Separate portions of compound 1 Fumarate (75 mg, 1.0 wt.) were charged to separate vessels. The appropriate solvents (750 μl) were charged to the relevant vessels and subsequent charges of the appropriate co-solvent were made to accomplish dissolution. The solutions were cooled to 18 to 23° C. and allowed to stand undisturbed, until crystallization was judged complete. After this time the products were isolated by centrifugation, washed with recycled maturation solvent, dried under reduced pressure at 40° C. and analyzed by XRPD for evidence of alternative crystalline forms (FIG. 103).

[2] = Equilibrium humidity evaluation of crystalline compound 1 HCl Form A (95% RH/20° C.); format: physicochemical
Experimental: The stability of crystalline compound 1 HCl Form A was evaluated. Absorbent compound 1·Cl (Form A), (100 mg) was maintained, open-capped at 95% RH/20° C. and monitored at t=0, t=5 d and t=10 d, time points.
While absorbent Compound 1 HCl Form A), (100 mg) was placed open-capped inside double, cable-tied, electrostatic polythene bags (to mimic a typical packaging configuration) and placed inside the same humidity chamber at 95% RH at 20° C. and monitored at t=0, t=5 d and t=10 d time points. Stability of compound 1·HCl (Form A) at 40° C./75% RH was examined as part of the salt screen, and was stable over 10 d.

[3] = Binary solvent evaporation crystallization of Compound 1 HCl
Experimental: A binary solvent evaporation crystallization panel was performed. Separate portions of Compound 1 HCl 50 mg) were dissolved in a primary solvent of water (500 μl per sample) and a secondary solvent—one of either acetone (250 μl, A), acetonitrile (250 μl, B), THF (250 μl, C) and methanol (250 μl, D).
Each vial was capped with aluminium foil, pieced and allowed to stand undisturbed until the evaporation was completed. Experimental details are included in Table 109.

[4] = Heptane (5 vol) + 2-Methyl THF 380 μl
[5] = Heptane (5 vol) + 2-Propanol 120 μl
[6] = Heptane (5 vol) + Acetone 200 μl
[7] = Heptane (5 vol) + Butanol 100 μl
[8] = Heptane (5 vol) + Dichloromethane 160 μl
[9] = Heptane (5 vol) + Diethyl ether 800 μl
[10] = Heptane (5 vol) + Dioxane 240 μl
[11] = Heptane (5 vol) + Ehtyl acetate 420 μl
[12] = Heptane (5 vol) + Ethanol 180 μl
[13] = Heptane (5 vol) + Isopropyl acetate 660 μl
[14] = Heptane (5 vol) + Methylethyl ketone 100 μl
[15] = Heptane (5 vol) + Tetrahydrofuran 300 μl
[16] = no precipitant solvent (—), Toluene 800 μl
[17] = t = 10 d, open-capped vial inside double bags at 95% RH/20 (Table 111)
[18] = t = 10 d, open-capped vial inside double bags at 95% RH/20 (Table 112)

## COc1ccc2c(ccn2C[C@@H](C)[NH+](C)C)c1.O=C(O)/C=C/C(=O)O [Compound 1 fumarate, (R)-1-(5-methoxy-1H-indol-1-yl)-N,N-dimethylpropan-2-amine fumarate]
[1]; [4]
  Form XRPD (oven dried): Pattern 1
  Observations (t = 0 @ T = 20° C.): suspension
  Observations (t = 3 d @ 20° C.): suspension
[1]; [5]
  Form XRPD (oven dried): Pattern 1
  Observations (t = 0 @ T = 20° C.): suspension
  Observations (t = 3 d @ 20° C.): suspension
[1]; [6]
  Form XRPD (oven dried): Pattern 1
  Observations (t = 0 @ T = 20° C.): suspension
  Observations (t = 3 d @ 20° C.): suspension
[1]; [7]
  Form XRPD (oven dried): Pattern 1
  Observations (t = 0 @ T = 20° C.): suspension
  Observations (t = 3 d @ 20° C.): suspension
[1]; Heptane (5 vol) + CPME 800 μl
  Form XRPD (oven dried): Pattern 1
  Observations (t = 0 @ T = 20° C.): gum
  Observations (t = 3 d @ 20° C.): gum
[1]; [8]
  Observations (t = 0 @ T = 20° C.): suspension
  Observations (t = 3 d @ 20° C.): suspension
[1]; [9]
  Form XRPD (oven dried): Pattern 1
  Observations (t = 0 @ T = 20° C.): gum
  Observations (t = 3 d @ 20° C.): gum
[1]; [10]
  Observations (t = 0 @ T = 20° C.): suspension
  Observations (t = 3 d @ 20° C.): suspension
[1]; [11]
  Form XRPD (oven dried): Pattern 1
  Observations (t = 0 @ T = 20° C.): suspension
  Observations (t = 3 d @ 20° C.): suspension
[1]; [12]
  Form XRPD (oven dried): Pattern 1
  Observations (t = 0 @ T = 20° C.): suspension
[1]; [13]
  Form XRPD (oven dried): Pattern 1
  Observations (t = 0 @ T = 20° C.): suspension
  Observations (t = 3 d @ 20° C.): suspension
[1]; Heptane (5 vol) + MIBK 420 μl
  Form XRPD (oven dried): Pattern 1
  Observations (t = 0 @ T = 20° C.): suspension
  Observations (t = 3 d @ 20° C.): suspension
[1]; [14]
  Form XRPD (oven dried): Pattern 1
  Observations (t = 3 d @ 20° C.): suspension
[1]; [15]
  Form XRPD (oven dried): Pattern 1
  Observations (t = 0 @ T = 20° C.): suspension
  Observations (t = 3 d @ 20° C.): suspension
[1]; Water (5 vol) + Ethanol 80 μl
  Observations (t = 0 @ T = 20° C.): solution
[1]; [16]
  Form XRPD (oven dried): Pattern 1
  Observations (t = 0 @ T = 20° C.): gum
  Observations (t = 3 d @ 20° C.): gum

## COc1ccc2c(ccn2C[C@@H](C)N(C)C)c1.Cl [Compound 1 HCl]
[2]; t = 0, Table 111
  HPLC purity data, peak RT 11.41, RRT 0.94: 0.07
  HPLC purity data, peak RT 12.41, RRT 1.00 (main peak): 99.65
  HPLC purity data, peak RT 14.32, RRT 1.18: 0.03
  HPLC purity data, peak RT 15.05, RRT 1.24: 0.05
  HPLC purity data, peak RT 15.41, RRT 1.27: 0.07
  HPLC purity data, peak RT 15.78, RRT 1.30: 0.04
  HPLC purity data, peak RT 16,50, RRT 1.36: 0.08
[2]; t = 0, Table 112
  HPLC purity data, peak RT 11.41, RRT 0.94: 0.07
  HPLC purity data, peak RT 12.01, RRT 0.99: 0.02
  HPLC purity data, peak RT 12.14, RRT 1.00 (main peak): 99.65
  HPLC purity data, peak RT 14.32, RRT 1.18: 0.03
  HPLC purity data, peak RT 15.05, RRT 1.24: 0.05
  HPLC purity data, peak RT 15.41, RRT 1.27: 0.07
  HPLC purity data, peak RT 15.78, RRT 1.30: 0.04
  HPLC purity data, peak RT 16.50, RRT 1.36: 0.08
[2]; [17]
  HPLC purity data, peak RT 11.29, RRT 0.93: 0.06
  HPLC purity data, peak RT 11.41, RRT 0.94: 0.02
  HPLC purity data, peak RT 12.41, RRT 1.00 (main peak): 99.79
  HPLC purity data, peak RT 14.32, RRT 1.18: 0.03
  HPLC purity data, peak RT 15.05, RRT 1.24: 0.04
  HPLC purity data, peak RT 15.41, RRT 1.27: 0.02
[2]; [18]
  HPLC purity data, peak RT 11.41, RRT 0.94: 0.06
  HPLC purity data, peak RT 12.01, RRT 0.99: 0.02
  HPLC purity data, peak RT 12.14, RRT 1.00 (main peak): 99.78
  HPLC purity data, peak RT 14.32, RRT 1.18: 0.03
  HPLC purity data, peak RT 14.68, RRT 1.21: 0.03
  HPLC purity data, peak RT 15.05, RRT 1.24: 0.05
  HPLC purity data, peak RT 15.41, RRT 1.27: 0.01
  HPLC purity data, peak RT 15.78, RRT 1.30: 0.02
[3]; A: Water 10.0 vol + Acetone 250 μL
  Observations (t = 14 days @ ambient): Solid
[3]; B: Water 10.0 vol + Acetonitrile 250 μL
  Observations (t = 14 days @ ambient): Solid
[3]; C: Water 10.0 vol + THF 250 μL
  Observations (t = 14 days @ ambient): Solid
[3]; D: Water 10.0 vol + Methanol 250 μL
  Observations (t = 14 days @ ambient): Solid
